Measured values published in the NIST ThermoML archive (doi:10.1021/je900515a).

Tests used:
[1] = Liquid, Pycnometric method
[2] = molar heat capacity at constant pressure; settings: Liquid, Thermal relaxation method

C=C(F)C(F)(F)F [2,3,3,3-tetrafluoro-1-propene]
Settings | mass density, [1] [kg/m3] | molar heat capacity at constant pressure, [2] [J/K/mol]
310 K, 1000 kPa | 1046.5 | –
310 K, 2000 kPa | 1056.3 | 165.36
310 K, 3000 kPa | 1065.2 | 161.94
310 K, 4000 kPa | 1072.8 | 152.82
310 K, 5000 kPa | 1080.6 | 153.96
320 K, 2000 kPa | 1013.8 | 173.34
320 K, 3000 kPa | 1025.1 | 167.64
320 K, 4000 kPa | 1035.3 | 160.8
320 K, 5000 kPa | 1044.8 | 157.38
330 K, 2000 kPa | 964.2 | 185.89
330 K, 3000 kPa | 979.2 | 179.05
330 K, 4000 kPa | 992.7 | 168.78
330 K, 5000 kPa | 1004.6 | 163.08
340 K, 2000 kPa | 903 | 205.27
340 K, 3000 kPa | 926.7 | 187.03
340 K, 4000 kPa | 945.3 | 177.9
340 K, 5000 kPa | 961.3 | 169.92
350 K, 3000 kPa | 861.8 | 217.82
350 K, 4000 kPa | 891.3 | 196.15
350 K, 5000 kPa | 913.1 | 182.47
360 K, 3000 kPa | 751.9 | 297.65
360 K, 4000 kPa | 818.5 | 222.38
360 K, 5000 kPa | 853.9 | 197.29
